A word on the melting point: it is the temperature, or range, at which the solid turns liquid.

This note sets out measurements from US8076369B2, “N-alkyl-hydroxamic acid-isoindolyl compounds and their pharmaceutical uses” (Celgene Corporation, priority 2003, dated 2011).

In turn, `CCOc1cc(C(CCN(OC(C)=O)C(C)=O)N2Cc3cccc(NC(=O)C4CC4)c3C2=O)ccc1OC` (stereo not drawn) [Example 14] came in with a melting point of 123 to 125 °C.
Under `CCOc1cc([C@@H](CC(C)N(O)C=O)N2Cc3cccc(NC(=O)C4CC4)c3C2=O)ccc1OC` (stereo partly drawn) [Example 15, (1R)-Cyclopropanecarboxylic acid {2-[1-(3-ethoxy-4-methoxy-phenyl)-3-(formyl-hydroxy-amino)-butyl]-3-oxo-2,3-dihydro-1H-Isoindol-4-yl}-amide] stands 142 to 144 °C; under `CCOc1cc([C@@H](CCN(O)C=O)N2C(=O)c3cccc(NC(C)=O)c3C2=O)ccc1OC` [Example 10, (1R)—N-{2-[1-(3-Ethoxy-4-methoxy-phenyl)-3-(N-formyl-N-hydroxy-amino)-propyl]-1,3-dioxo-2,3-dihydro-1H-Isoindol-4-yl}-acetamide], 96 to 98 °C.
Take `CCOc1cc([C@@H](CCN(O)C(N)=O)N2Cc3cccc(NC(=O)C(C)C)c3C2=O)ccc1OC` [Example 12, (1R)—N-{2-[3-(N-Aminocarbonyl-N-hydroxy-amino)-1-(3-ethoxy-4-methoxy-phenyl)-propyl]-3-oxo-2,3-dihydro-1H-Isoindol-4-yl}-Isobutyramide]: the melting point was in the range of 137 to 139 °C.
`CCOc1cc([C@@H](CCN(O)C=O)N2Cc3cccc(NC(=O)C(C)C)c3C2=O)ccc1OC` [Example 9, (1R)—N-{2-[1-(3-Ethoxy-4-methoxy-phenyl)-3-(N-formyl-N-hydroxy-amino)-propyl]-3-oxo-2,3-dihydro-1H-Isoindol-4-yl}-Isobutyramide] gave a melting point of 81 to 83 °C.
Take `CCOc1cc(C(CCN(OC(=O)OC(C)(C)C)C(=O)OC(C)(C)C)N2Cc3cccc(N)c3C2=O)ccc1OC` (stereo not drawn) [Example 5, N-[3-(7-Amino-1-oxoisoindolin-2-yl)-3-(3-ethoxy-4-methoxyphenyl)propyl](tert-butoxy)carbonylamino (tert-butoxy)formate]: the melting point fell in the range of 85 to 87 °C.
Under `CCOc1cc(C(CCN(OC(=O)OC(C)(C)C)C(=O)OC(C)(C)C)N2Cc3cccc(NC(=O)C4CC4)c3C2=O)ccc1OC` [Example 4, (3R)-(tert-Butoxy)-N-{3-[7-(cyclopropylcarbonylamino)-1-oxoisoindolin-2-yl]-3-(3-ethoxy-4-methoxyphenyl)propyl}carbonylamino(tert-butoxy)formate] stands 153 to 155 °C; under `CCOc1cc([C@@H](CCO)N2Cc3cccc(NC(=O)C4CC4)c3C2=O)ccc1OC` [Example 1, (1R)-Cyclopropanecarboxylic acid {2-[1-(3-ethoxy-4-methoxy-phenyl)-3-hydroxy-propyl]-3-oxo-2,3-dihydro-1H-Isoindol-4-yl}-amide], 103 to 105 °C; under `CCOc1cc([C@@H](CCNO)N2Cc3cccc(NC(=O)C4CC4)c3C2=O)ccc1OC` [Example 6, (3R)-Cyclopropanecarboxylic acid {2-[1-(3-ethoxy-4-methoxy-phenyl)-3-hydroxyamino-propyl]-3-oxo-2,3-dihydro-1H-Isoindol-4-yl}-amide], 136 to 138 °C.
`CCOc1cc([C@@H](CCN(O)C=O)N2Cc3cccc(NC(=O)C4CC4)c3C2=O)ccc1OC` [Example 7, (1R)-Cyclopropanecarboxylic acid {2-[1-(3-ethoxy-4-methoxy-phenyl)-3-(N-formyl-N-hydroxy-amino)-propyl]-3-oxo-2,3-dihydro-1H-Isoindol-4-yl}-amide] came in with a melting point of 102 to 104 °C.
The figure for `CCOc1cc([C@@H](CCN(O)C=O)N2Cc3cccc(NC(C)=O)c3C2=O)ccc1OC` [Example 8, (1R)—N-{2-[1-(3-Ethoxy-4-methoxy-phenyl)-3-(N-formyl-N-hydroxy-amino)-propyl]-3-oxo-2,3-dihydro-1H-Isoindol-4-yl}-acetamide] is 79 to 81 °C; for `CCOc1cc([C@@H](CCN(C=O)OC(C)=O)N2Cc3cccc(NC(=O)C(C)C)c3C2=O)ccc1OC` [Example 11, (1R)—N-{2-[3-(N-Acetoxy-N-formyl-amino)-1-(3-ethoxy-4-methoxy-phenyl)-propyl]-3-oxo-2,3-dihydro-1H-Isoindol-4-yl}-Isobutyramide] it is 72 to 74 °C.
